In PMC8422859, “A Novel Oral Arginase 1/2 Inhibitor Enhances the Antitumor Effect of PD-1 Inhibition in Murine Experimental Gliomas by Altering the Immunosuppressive Environment” (Frontiers in Oncology, 2021):

How the values were obtained:
recombinant human ARG2 = biological target: T1, recombinant human ARG2 (Homo sapiens, UniProt P78540); test: Recombinant arginase activity assay, hARG2; type: biochemical; conditions: 1 h at 37°C, pH 7.4, 10 mM L-arginine, urea detection; read-out: Inhibition of recombinant hARG2: IC50
T1 construct: made in house; host or cells: E. coli
T1 sequence (P78540 23-354): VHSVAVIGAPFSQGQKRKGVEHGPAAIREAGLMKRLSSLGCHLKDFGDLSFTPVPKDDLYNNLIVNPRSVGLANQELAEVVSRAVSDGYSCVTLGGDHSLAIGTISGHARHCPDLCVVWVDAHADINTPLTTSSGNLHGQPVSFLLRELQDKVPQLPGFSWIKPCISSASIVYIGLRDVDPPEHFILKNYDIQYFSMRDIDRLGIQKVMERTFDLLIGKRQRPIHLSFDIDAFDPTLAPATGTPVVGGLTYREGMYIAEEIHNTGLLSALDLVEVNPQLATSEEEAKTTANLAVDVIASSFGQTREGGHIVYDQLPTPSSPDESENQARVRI
Method: (§1) The inhibitory activity towards hARG1 and hARG2 enzymes was assessed using recombinant enzymes biosynthesized using a prokaryotic expression system (E. coli) and purified by fast protein liquid chromatography (FPLC). Briefly, recombinant enzymes were incubated with the tested compounds for 1 h at 37°C in the reaction buffer (100 mM sodium phosphate buffer, 130 mM NaCl, 1 mg/mL BSA, pH 7.4) containing substrate (10 mM L-arginine hydrochloride) and cofactor (200 µM MnCl2). The assay is based on the detection of urea, which is generated during the conversion of L-arginine into L-ornithine catalyzed by arginases. To visualize the product, we adding a mixture of reagent A (4 mM oPA, 50 mM boric acid, 1 M sulfuric acid, 0.03% Brij-35) and reagent B (4 mM NED, 50 mM boric acid, 1 M sulfuric acid, 0.03% Brij-35) in equal proportions. The absorbance was measured at 515 nm. The urea production in the absence of any tested compound was considered as maximal enzyme activity. The absorbance in the absence of arginase (background) was considered as zero activity. Two reference compounds OAT-81 (ABH, no. 222638-65-5) and OAT-90 (2-amino-6-borono-2-(2-(3-(2,4-dichlorophenyl)propyloamino)ethyl) hexanoic acid, and two novel inhibitors OAT-1617 and OAT-1746 (the last three synthesized at OncoArendi Therapeutics) were tested. Normalized values were analyzed using GraphPad Prism 7.0 software and the IC50 values were determined.

recombinant human ARG1 = biological target: T2, recombinant human ARG1 (Homo sapiens, UniProt P05089); test: Recombinant arginase activity assay, hARG1; type: biochemical; conditions: 1 h at 37°C, pH 7.4, 10 mM L-arginine, urea detection; read-out: Inhibition of recombinant hARG1: IC50
T2 construct: made in house; host or cells: E. coli
T2 sequence (P05089 1-322): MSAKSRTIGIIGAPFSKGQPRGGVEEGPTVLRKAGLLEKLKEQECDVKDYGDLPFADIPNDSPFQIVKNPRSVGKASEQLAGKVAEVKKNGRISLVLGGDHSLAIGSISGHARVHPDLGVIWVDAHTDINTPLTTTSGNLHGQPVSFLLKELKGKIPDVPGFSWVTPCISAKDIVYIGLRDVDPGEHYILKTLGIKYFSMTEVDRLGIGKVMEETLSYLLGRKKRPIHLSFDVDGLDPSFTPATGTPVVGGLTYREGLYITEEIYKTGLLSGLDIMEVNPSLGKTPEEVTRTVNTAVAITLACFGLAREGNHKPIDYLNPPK
Method: as §1

LN18 glioma cells = test: Matrigel invasion assay, LN18 co-cultured with BV2 microglia; type: cell-based, human; conditions: 11 µM, co-culture with BV2, 18 h
Method: BV2 cells were plated onto a 24-well plate at the density of 4×10^4. After 24 h, the invasion assay was performed with tissue culture inserts (6.5 mm Transwell® with 8.0 µm Pore Polycarbonate Membrane Insert, Corning, NY, USA) coated with the Growth Factor Reduced Matrigel™ Matrix (BD Biosciences, San Diego. CA, USA). The Matrigel™ Matrix (50 µL of 1 mg/mL stock solution diluted in fresh DMEM) was dried under sterile conditions (37°C) for 5–6 h. The medium in BV2 cultures was replaced with fresh one 1 h before seeding glioblastoma cells onto the inserts, then LN18 and U87 glioblastoma cells were seeded at 2×10^4/insert on Matrigel-covered membranes in a serum-reduced medium (2% FBS). Untreated glioblastoma cells co-cultured with or without BV2 cells served as positive and negative controls, respectively. Cells were treated with the arginase-1 inhibitors OAT-90, OAT-1617 and OAT-1746 solved in PBS. The cultures were kept in incubator at 37°C with humidified air containing 5% CO2. […] The membranes from Transwell® inserts were cut out and images were acquired using a fluorescence microscope (Leica DM4000B, 10x lens) from the 5 independent fields (bottom; top; left; right side and the middle). Numbers of invading cells were counted using the ImageJ software (NIH, Bethesda, MD, USA). […]

U87-MG glioma cells = test: Matrigel invasion assay, U87-MG co-cultured with BV2 microglia; type: cell-based, human
Method: BV2 cells were plated onto a 24-well plate at the density of 4×10^4. After 24 h, the invasion assay was performed with tissue culture inserts (6.5 mm Transwell® with 8.0 µm Pore Polycarbonate Membrane Insert, Corning, NY, USA) coated with the Growth Factor Reduced Matrigel™ Matrix (BD Biosciences, San Diego. CA, USA). The Matrigel™ Matrix (50 µL of 1 mg/mL stock solution diluted in fresh DMEM) was dried under sterile conditions (37°C) for 5–6 h. The medium in BV2 cultures was replaced with fresh one 1 h before seeding glioblastoma cells onto the inserts, then LN18 and U87 glioblastoma cells were seeded at 2×10^4/insert on Matrigel-covered membranes in a serum-reduced medium (2% FBS). Untreated glioblastoma cells co-cultured with or without BV2 cells served as positive and negative controls, respectively. Cells were treated with the arginase-1 inhibitors OAT-90, OAT-1617 and OAT-1746 solved in PBS. The cultures were kept in incubator at 37°C with humidified air containing 5% CO2. After 18 h cells were fixed in ice-cold methanol and cell nuclei stained with DAPI (4′,6-Diamidino-2-Phenylindole; 1 µg/mL, Sigma). The membranes from Transwell® inserts were cut out and images were acquired using a fluorescence microscope (Leica DM4000B, 10x lens) from the 5 independent fields (bottom; top; left; right side and the middle). Numbers of invading cells were counted using the ImageJ software (NIH, Bethesda, MD, USA). All experiments were performed three times, in duplicates.

T cell proliferation = tested on: T cell proliferation; set-up: method as in PMID 29254508; conditions: cited from earlier work
[1] = tested on: CT26, LLC, B16, and 4T1 tumors; set-up: method as in PMID 29254508; conditions: B16, 4T1; cited from earlier work

SMILES	IC50 (recombinant human ARG2) [nM]	IC50 (recombinant human ARG1) [nM]	microglia-induced invasion of LN18 cells (LN18 glioma cells)	microglia-induced invasion of U87-MG cells (U87-MG glioma cells; 11 µM, co-culture with BV2, 18 h)	concentration dependence of the inhibitory effect on glioma invasion (U87-MG glioma cells; 0.1 and 11 µM, U87-MG with BV2)	myeloid cell-mediated suppression of T cell proliferation in vitro (T cell proliferation)	tumor growth in mouse models of non-CNS tumors [1]
N[C@@H](CCCCB(O)O)C(=O)O [Ref.comp. 1, ABH]	2670	1080	–	–	–	–	–
NC(CCCCB(O)O)(CCNCCCc1ccc(Cl)cc1Cl)C(=O)O (stereo not drawn) [OAT-90, 2-amino-6-borono-2-(2-(3-(2,4-dichlorophenyl)propyloamino)ethyl) hexanoic acid, reference compound]	796	151	effectively reduced glioma invasion	effectively reduced glioma invasion	this dependence was not observed	–	–
C[C@H](N)C(=O)N1C[C@H](CCCB(O)O)[C@](N)(C(=O)O)C1 [CB-1158]	–	–	–	–	–	blocked	reduced tumor growth
